The format of data set [1] is in vivo, Sprague-Dawley rats. To be noted: male, Sprague-Dawley, rat, in vivo, po, 12.7 mg/kg. As to the method: β-d-N^4-hydroxycytidine (NHC) was dosed orally by gavage to male Sprague-Dawley rats (n=3) at 10 mg/kg in 3.9% citric acid and 96.1% water, pH 2.8; Molnupiravir at 12.7 mg/kg in 2.5% kolliphor RH 40, 10% polyethylene glycol 300 and 87.5% water, pH 5.3. […]

The subject of a further data set is SARS-CoV-2. Set-up: species or system ferrets. The following applies: in vivo, po.
For data set [2], the system named is SARS-CoV-2 2019-nCoV/USA-WA1/2020. The format is in vivo. To be noted: in vivo.
The nature of data set [3]: in vitro. The format is in vitro ADME, Human. To be noted: human, s9, pH 7.4. As to the method:
(§1) Duplicate aliquots of test compound or positive control substrate (GS-7340) were added to S9 stock diluted with 100 mM phosphate buffered saline, pH 7.4, to obtain a protein concentration of 1.0 mg/mL. The S9 metabolic reactions were initiated by the addition of the substrates to the S9 reaction mixture to a final concentration of 2 μM. At 0, 10, 20, 30, 60 and 120 min, 25 μL aliquots of the reaction mixture were transferred to plates containing 225 μl of IS/Q solution. After quenching, the plates were centrifuged at 3000×g for 30 minutes, and 150 μL aliquots of each supernatant were diluted with 150 μL water. Aliquots (10 μL) of the diluted supernatant were analyzed on a Thermo Q-Exactive mass spectrometer as described below.
(§2) Quantification of test compounds and controls was performed by analyte/internal standard peak area ratio (PAR) values measured on a Thermo Q-Exactive mass spectrometer coupled to a Dionex UltiMate 3000 HPLC with a Leap Technologies HTC PAL autosampler. The column used was a Thermo Hypersil GOLD (1.9 μm particle size, 2.1×50 mm). Mobile phase A consisted of 0.1% (v/v) formic acid in water. Mobile phase B consisted of 0.1% (v/v) formic acid in acetonitrile. Elution of analytes was achieved by a series of linear gradients of acetonitrile in water containing 0.1% (v/v) formic acid. The mass spectrometer was calibrated on a weekly basis and mass tolerance of 5 ppm was used.

Another data set deals with T1, CES1 (Homo sapiens, UniProt P23141).
T1 construct: purchased
T1 sequence (P23141 18-567): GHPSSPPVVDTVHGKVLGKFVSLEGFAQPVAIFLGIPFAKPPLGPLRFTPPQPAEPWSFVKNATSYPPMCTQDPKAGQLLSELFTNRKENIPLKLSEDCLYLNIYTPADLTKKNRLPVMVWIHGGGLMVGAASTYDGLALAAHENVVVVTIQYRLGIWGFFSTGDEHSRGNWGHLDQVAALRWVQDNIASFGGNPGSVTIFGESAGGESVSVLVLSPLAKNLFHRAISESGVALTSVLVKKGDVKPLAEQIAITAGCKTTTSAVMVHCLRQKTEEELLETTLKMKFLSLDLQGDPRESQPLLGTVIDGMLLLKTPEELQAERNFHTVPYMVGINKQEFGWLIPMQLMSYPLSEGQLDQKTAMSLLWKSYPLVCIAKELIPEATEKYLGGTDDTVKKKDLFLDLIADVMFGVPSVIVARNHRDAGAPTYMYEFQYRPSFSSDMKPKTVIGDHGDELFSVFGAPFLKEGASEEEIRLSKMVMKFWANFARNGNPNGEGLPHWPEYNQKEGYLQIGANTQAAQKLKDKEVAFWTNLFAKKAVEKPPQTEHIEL
Nature of the data set: CES1/2 stability, CES1. The format is in vitro ADME. To be noted: CES1 Supersome preparation; Supersome preparations, CES 1.5 mg/ml, 2 μM substrate, pH 7.4, 37° C.; read-out: CES1 T1/2. As to the method:
(§3) Test compounds or positive control substrates (oseltamivir for CES1 enzymes or procaine for CES2) were incubated with individual Supersome preparations (final CES concentration 1.5 mg/ml) in 0.1 M potassium phosphate buffer (pH 7.4) at 37° C. Substrates were added to a final concentration of 2 μM to initiate the reaction. The final incubation volume was 250 μL. Aliquots were removed after incubation for 0, 10, 30, 60 and 120 min. The reactions were stopped by the addition of IS/Q. Following protein precipitation and centrifugation, 150 μL of supernatant was diluted with an equal volume of water prior to LC-MS analysis. For procaine 150 μL of supernatant was dried down and reconstituted with 250 μL water. All samples were analyzed by LC-MS and the PAR values were used for quantification.

In another data set the target is T2, CES2 (Homo sapiens, UniProt O00748).
T2 construct: purchased
T2 sequence (O00748 27-559): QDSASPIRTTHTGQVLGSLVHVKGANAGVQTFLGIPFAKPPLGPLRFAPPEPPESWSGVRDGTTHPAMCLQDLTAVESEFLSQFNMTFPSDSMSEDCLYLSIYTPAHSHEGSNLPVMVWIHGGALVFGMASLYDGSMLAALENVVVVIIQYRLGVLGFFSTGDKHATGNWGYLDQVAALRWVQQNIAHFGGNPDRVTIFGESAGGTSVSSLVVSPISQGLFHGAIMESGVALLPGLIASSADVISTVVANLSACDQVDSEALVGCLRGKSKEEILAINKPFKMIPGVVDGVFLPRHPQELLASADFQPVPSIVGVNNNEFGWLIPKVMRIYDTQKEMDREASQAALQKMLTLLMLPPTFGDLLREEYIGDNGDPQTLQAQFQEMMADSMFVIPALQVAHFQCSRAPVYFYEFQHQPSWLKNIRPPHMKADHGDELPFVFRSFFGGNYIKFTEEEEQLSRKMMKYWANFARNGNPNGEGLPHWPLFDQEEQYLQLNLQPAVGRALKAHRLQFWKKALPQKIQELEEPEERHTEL
Nature of the data set: CES1/2 stability, CES2. The format is in vitro ADME. To be noted: CES2 Supersome preparation; Supersome preparations, CES 1.5 mg/ml, 2 μM substrate, pH 7.4, 37° C.; read-out: CES2 T1/2. As to the method: as §3

A further data set can be described thus: Plasma stability. To be noted: human.
A further data set deals with RSV strain A2. The experiment in a line: RSV antiviral assay (Hep2), EC50-Hep2/B1-384. The format is cell-based. The following applies: human respiratory syncytial virus, HEp-2, 96 h; Hep2 cells, 4 days, Cell-Titer Glo.
The subject of another data set is SARS-CoV-2-Nluc viruses. The experiment in a line: microbe, parasite or virus in culture. The format is cell-based. The following applies: Severe acute respiratory syndrome coronavirus 2, 48 h; read-out: SARS-CoV2 EC50.
A short description of data set [4]: in vitro. The format is cell-based. The following applies: human. How it is done:
The cytotoxicity of compounds was determined in A549-hACE2 cells in the following manner. Compounds (200 nL) were spotted onto 384-well Grenier plates prior to seeding 5000 A549-hACE2 cells/well in a volume of 40 μL culture medium. The plates were incubated at 37° C. for 48 hours with 5% CO2. On day 2, 40 μL of CellTiter-Glo (Promega) was added and mixed 5 times.

In data set [5] the test system is RSV-Fluc (Respiratory Syncytial virus strain A2 containing the firefly luciferase reporter). The experiment in a line: microbe, parasite or virus in culture. The format is cell-based. The following applies: human respiratory syncytial virus, 72 h, NHBE cells, three days.
Data set [6] is described as follows: in vitro. The format is in vitro ADME. To be noted: s9, pH 7.4. As to the method: as §1, with “mM potassium” for “mM”, “phosphate buffer,” for “phosphate buffered saline,”, “of 2.4” for “of 1.0”, “At 2, 12, 25, 45, 65” for “At 0, 10, 20, 30, 60”, “and 90” for “and 120”, “150 μl,” for “150 μL”
as §2

For data set [7] the following is noted: male, Sprague-Dawley, rat, in vivo, po, 6 mg/kg.

Where two headings read alike, the source gives them in different places.

Consider `CC(C)C(=O)OC[C@H]1O[C@@H](n2ccc(NO)nc2=O)[C@H](O)[C@@H]1O` [Molnupiravir, reference compound], for which, in data set [1], the Cmax is 4.09 µM, the “NHC AUCinf.” value is 8.96 µM·h, the “NHC F % (based on NHC mg-eq dose)” value stood at 39.1% and the “NHC F % (based on molnupiravir dose)” value was 30.8%. Also, in the data set on SARS-CoV-2 (5 mg/kg), the “Change from vehicle, nasal lavage AUC(0-96) PFU/mL” value is listed as −2.34 log10; the “Change from vehicle, nasal lavage AUC(0-96) RNA copies/μL” value is −0.87 log10; the “Change from vehicle, nasal turbinate terminal PFU/mL” value was −3.79 log10; the “Change from vehicle, nasal turbinate terminal RNA copies/μL” value is −2.68 log10. For the same compound, in data set [2], the “Clinical signs versus vehicle animals” value is recorded as “No significant differences in clinical signs”; the “Shed virus load (nasal lavages) versus vehicle” value is on record as “lower in all treated animals than in the vehicle group”; the “Viral RNA copies in nasal lavages and turbinates versus vehicle” value is given as “statistically significant mean reduction”; the “Virus burden in the turbinates” value is “reduced burden in the turbinates”. Besides, in the data set “in vitro [3]”, the half-life at 2 μM is over 700 min. For the same compound, the half-life at 2 μM on CES1 lay in the range of 30 to 51 min. In addition, the half-life at 2 μM on CES2 worked out at 9.8 min. This compound also came in with a half-life at 2 μM in the data set “Plasma stability” of 51 min.

In the case of `CC(C)C(=O)OC[C@H]1O[C@@](C#N)(c2ccc3c(N)ncnn23)[C@H](O)[C@@H]1O` [Compound 15, ((2R,3S,4R,5R)-5-(4-aminopyrrolo[2,1-f][1,2,4]triazin-7-yl)-5-cyano-3,4-dihydroxytetrahydrofuran-2-yl)methyl isobutyrate], the values for the EC50 (in the data set with RSV strain A2; in the data set on SARS-CoV-2-Nluc viruses; in data set [5]) were 0.407 µM, 1.03 µM and 0.588 µM, respectively. This compound also gave a CC50 at 48 h in the data set “in vitro [4]” of over 50 µM. Besides, the figures for the “Change from vehicle, nasal lavage AUC(0-96) PFU/mL” value in the data set on SARS-CoV-2 (5 mg/kg), in the data set on SARS-CoV-2 (10 mg/kg) and in the data set on SARS-CoV-2 (40 mg/kg) were −2.21 log10, −2.50 log10 and −2.80 log10, respectively. The “Change from vehicle, nasal lavage AUC(0-96) RNA copies/μL” value in the data set on SARS-CoV-2 (5 mg/kg) was −1.33 log10; in the data set on SARS-CoV-2 (10 mg/kg) it was −1.51 log10; with SARS-CoV-2 (40 mg/kg), −1.91 log10. Moreover, the entries for the “Change from vehicle, nasal turbinate terminal PFU/mL” value with SARS-CoV-2 (5 mg/kg), in the data set on SARS-CoV-2 (10 mg/kg) and in the data set on SARS-CoV-2 (40 mg/kg) were −1.68 log10, −2.20 log10 and −3.79 log10, respectively. The “Change from vehicle, nasal turbinate terminal RNA copies/μL” value in the data set with SARS-CoV-2 (5 mg/kg) is recorded as −2.14 log10; in the data set with SARS-CoV-2 (10 mg/kg), −1.79 log10; in the data set on SARS-CoV-2 (40 mg/kg) it was −4.01 log10. For the same compound, the half-life at 2 μM in the data set “in vitro [3]” was 69 min; at CES1, 6 min; at CES2, under 1 min; in “in vitro [6]” it was 1.2 min; in the data set “Plasma stability”, 29 min. In [7], this compound returned a Cmax of 2.1 µM.

The values are drawn from patent US11926645B2, “Compounds and methods for treatment of viral infections” (priority 2020, dated 2024).
